Measurements reported in patent publication US20210267939A1, “COMPOSITIONS AND METHODS FOR TREATING NAFLD/NASH AND RELATED DISEASE PHENOTYPES” (priority 2018, published 2021).
“Also recorded” adds a separate entry of the source.

Key:
Format in all cases: in vivo
Settings in all cases: ZFR, BT2 20 mg/kg i.p. daily for one week, vs vehicle
BCKDH = assay: Tissue BCKDH activity assay in treated Zucker fatty rats
Protocol: (§1) Individually housed, male 12 week-old Zucker fatty rats (ZFR, Charles River Laboratories) maintained on a custom control low fat (LF) diet (A11072001, Research Diets) were used for the BDK inhibition and PPM1K overexpression studies. For the BDK inhibition study, ZFR were administered the small molecule BDK inhibitor 3,6-dichlorobenzo[b]thiophene-2-carboxylic acid (BT2, Sigma) daily at a dose of 20 mg/kg dissolved in 200 ul of sterile dimethylsulfoxide by i.p. injection for 7 days. The control group was administered an equal volume of vehicle each day. On day 6, following an overnight fast, ZFR were subjected to a 1 g/kg i.p. glucose tolerance test (GTT) precisely 1 hr after administration of BT2 (20 mg/kg i.p.) or vehicle. The glucose tolerance test was performed as described (White, et al., 2016). Following the GTT, rats were returned to their normal cages and provided free access to food and water. Indirect calorimetry was performed in a second cohort of BT2 treated rats on day 6 of BT2 administration. Here ad-libitum fed rats were injected with BT2 (20 mg/kg i.p.) or vehicle immediately prior to being placed in an eight-chamber Oxymax system (Columbus Instruments) for seven hours. During their time in the metabolic cages all rats had free access to food and water. The next morning, rats were euthanized in the fed state precisely 1 hr following a final dose of BT2 (20 mg/kg i.p.) or vehicle.
For the PPM1K overexpression study, male 12 week-old ZFR were administered two doses of cyclosporine (15 mg/kg i.p., Novartis) prior to adenovirus administration. The first dose of cyclosporine was given 24 hours prior and the second dose was administered immediately prior to tail vein injection of Ad-CMV-PPM1K or Ad-CMV-GFP adenovirus (2×10^12 viral particles per kg). Both viruses use the CMV promoter to drive transgene expression. […]
BCKDH activity assay: Tissue BCKDH activity was measured. […] The ^14CO2 contained in the trap was counted in a Beckman Coulter LS6500 liquid scintillation counter.

BCKDH e1a = assay: Immunoblot of phospho-ser293 BCKDH e1a in tissues of treated Zucker fatty rats
Protocol: as §1, with “Here ad-libitum fed rats were injected with BT2 (20 mg/kg i.p.) or vehicle immediately prior to being placed in an eight-chamber Oxymax system (Columbus Instruments) for seven hours. During their time in the metabolic cages all rats had free access to food and water. The next morning, rats were euthanized in the fed state precisely 1 hr following a final dose of BT2 (20 mg/kg i.p.) or vehicle.” left out
Immunoblotting: Tissue lysates used for immunoblotting were prepared in Cell Lysis Buffer (Cell Signaling Technologies) containing protease inhibitor tablets (Roche), phosphatase inhibitor cocktails 2 and 3 (Sigma), and 10 mM PMSF. […] Immunoblots were developed using a Li-Cor Odyssey CLx and quantified using the Li-Cor software.

Zucker fatty rats = assay: Circulating BCAA and BCKA in treated Zucker fatty rats
Protocol: Individually housed, male 12 week-old Zucker fatty rats (ZFR, Charles River Laboratories) maintained on a custom control low fat (LF) diet (A11072001, Research Diets) were used for the BDK inhibition and PPM1K overexpression studies. For the BDK inhibition study, ZFR were administered the small molecule BDK inhibitor 3,6-dichlorobenzo[b]thiophene-2-carboxylic acid (BT2, Sigma) daily at a dose of 20 mg/kg dissolved in 200 ul of sterile dimethylsulfoxide by i.p. injection for 7 days. The control group was administered an equal volume of vehicle each day. […]
Metabolite profiling: Amino acids were measured in plasma and liver samples, and acylcarnitines in liver samples. […]
Plasma concentrations of the alpha-keto acids of leucine (α-keto-isocaproate, KIC), isoleucine (α-keto-β-methylvalerate, KMV) and valine (α-keto-isovalerate, KIV) were measured by LC-MS as previously described (Glynn et al., 2015; White et al., 2016). Other plasma analytes were measured on a Beckman DxC600 autoanalyzer, using reagents for lactate, total cholesterol, and triglycerides from Beckman, and non-esterified fatty acids (NEFA) and ketones (total and 3-hydroxybutyrate) from Wako (Richmond, Va.). Glycerol was measured using reagents from TG-B by Roche Diagnostics (Indianapolis, Ind.). Liver triglycerides were quantified using the triglyceride quantification kit from Abcam. […]

Compound: O=C(O)c1sc2cc(Cl)ccc2c1Cl [BT2, 3,6-dichlorobenzo[b]thiophene-2-carboxylic acid]
- BCKDH enzyme activity in heart (BCKDH): increased
- BCKDH enzyme activity in liver (BCKDH): increased
- BCKDH enzyme activity in skeletal muscle (BCKDH): small increment
- BCKDH phosphorylation in skeletal muscle (BCKDH e1a): not associated with a detectable change
- BCKDH phosphorylation on serine 293 of the e1a subunit in liver and heart (BCKDH e1a): lower levels
- circulating BCAA levels (Zucker fatty rats): lowered
- circulating branched-chain α-ketoacids (BCKA) (Zucker fatty rats; 20 mg/kg): more dramatic lowering; also recorded: potently lowers
